Results from patent publication US8680113B2, “BMI-1 protein expression modulators” (PTC Therapeutics, Inc., priority 2008, dated 2014).
Counter-ions that a name gives are not always drawn.

Tests used:
[1] = test system: Bmi-1; assay: Cell Model Assay: Bmi-1 expression in KG1; format: cell-based; details: KG1 (acute myelogenous leukemia)
Procedure: (§1) Using assay conditions known to those skilled in the art, the ability of the compounds described herein to reduce Bmi-1 expression in HT1080 (fibrosarcoma), U87-MG (glioblastoma), T98G (glioblastoma), K562 (chronic myelogenous leukemia) and KG1 (acute myelogenous leukemia) cell lines was tested (at test compound concentrations calculated from the ELISA assay data shown in Example 1) compared to puromycin as a control to provide the EC50 values shown in Table 2. The term “ND” means that data was not determined.

[2] = test system: MCL-Mino; assay: Mantle Cell Lymphoma Assay: cytotoxicity, Mino; format: cell-based; details: 72 hrs in culture
From the text: (§2) MCL cell lines Jeko, Mino, and Rec-1 were provided by American Type Culture Collection: The Bioresource Center (Manassas, Va.). […] Carlsbad, Calif.) in T-75 culture flasks. Cell concentration was maintained between 2 to 3×10^5 cells/mL. Early passage cells (passages 2-4) were used for all experiments. Ficoll-Histopaque density sedimentation (Sigma Aldrich) was used for separation of debris and purification of cell lines prior to experiments. […] The cytotoxic effect of test compounds on the MCL-cell lines was assessed by measuring cell concentration and cell viability using a Beckman Coulter Vi-Cell Counter. Controls and treated cells were harvested and counted at day 3.

[3] = test system: Bmi-1; assay: Cell Model Assay: Bmi-1 expression in T98G; format: cell-based; details: T98G (glioblastoma)
Procedure: as §1

[4] = test system: MCL-Rec1; assay: Mantle Cell Lymphoma Assay: cytotoxicity, Rec-1; format: cell-based; details: 72 hrs in culture
From the text: as §2

[5] = test system: MM cell line; assay: Multiple Myeloma Assay; format: cell-based; details: 72 hrs in culture
[6] = test system: Bmi-1; assay: Cell Model Assay: Bmi-1 expression in HT1080; format: cell-based, human; details: HT1080 (fibrosarcoma)
Procedure: as §1

[7] = test system: Bmi-1; assay: Sandwich ELISA Assay (Bmi-1 ELISA in HT-1080 cells); format: cell-based, human
Method in brief: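 HT-1080 cells (8000/well) were treated with compounds in 0.5% final DMSO for 40-48 h at 37°C and then lysed. Bmi-1 in lysates was measured by sandwich ELISA: overnight capture at 4°C on mouse monoclonal, rabbit anti-Bmi-1 detection, HRP anti-rabbit, TMB. OD450 was read with an OD570 reference against a recombinant GST-Bmi-1 standard curve (0-8000 pg/mL).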

[8] = test system: MCL-Jeko; assay: Mantle Cell Lymphoma Assay: cytotoxicity, Jeko; format: cell-based; details: 72 hrs in culture
From the text: as §2

[9] = test system: Bmi-1; assay: Cell Model Assay: Bmi-1 expression in K562; format: cell-based; details: K562 (chronic myelogenous leukemia)
Procedure: as §1

[10] = test system: Bmi-1; assay: Cell Model Assay: Bmi-1 expression in U87-MG; format: cell-based; details: U87-MG (glioblastoma)
Procedure: as §1

[11] = test system: Jeko, Mino and Rec-1 cells; assay: cells; format: cell-based; details: 72 h, read-out: decrease in cell viability

## COc1cc(Cl)c(Nc2nc(-c3c(C)nc4ncccn34)cs2)c(Cl)c1 (as salt: HBr) [Cpd 19, N-(2,6-dichloro-4-methoxyphenyl)-4-(2-methylimidazo[1,2-a]pyrimidin-3-yl)thiazol-2-amine]
other
  melting point: 232 to 240 °C

## COc1cc(C)c(Nc2nc(-c3cnc4ccc(Cl)cn34)cs2)c(C)c1 [Cpd 27, 4-(6-chloroimidazo[1,2-a]pyridine-3-yl)-N-(4-methoxy-2,6-dimethylphenyl)thiazol-2-amine]
[1]
  EC50: 128 nM
[2]; dose 0.004 μM
  Cell Concentration, MCL-Mino: 0.62 ± 0.02 ×10^6
[2]; dose 0.037 μM
  Cell Concentration, MCL-Mino: 0.64 ± 0.01 ×10^6
[2]; dose 0.11 μM
  Cell Concentration, MCL-Mino: 0.59 ± 0.03 ×10^6
[2]; dose 0.33 μM
  Cell Concentration, MCL-Mino: 0.57 ± 0.01 ×10^6
[2]; dose 1 μM
  Cell Concentration, MCL-Mino: 0.41 ± 0.00 ×10^6
[2]; dose 3 μM
  Cell Concentration, MCL-Mino: 0.09 ± 0.00 ×10^6
[3]
  EC50: 91 nM
[4]; dose 0.004 μM
  Cell Concentration, MCL-Rec1: 1.66 ± 0.06 ×10^6
[4]; dose 0.037 μM
  Cell Concentration, MCL-Rec1: 1.65 ± 0.03 ×10^6
[4]; dose 0.11 μM
  Cell Concentration, MCL-Rec1: 1.63 ± 0.04 ×10^6
[4]; dose 0.33 μM
  Cell Concentration, MCL-Rec1: 1.53 ± 0.01 ×10^6
[4]; dose 1 μM
  Cell Concentration, MCL-Rec1: 1.24 ± 0.03 ×10^6
[4]; dose 3 μM
  Cell Concentration, MCL-Rec1: 0.09 ± 0.01 ×10^6
[5]; dose 0.004 μM
  Cell Concentration, MM cell line: 1.46 ± 0.01 ×10^6
[5]; dose 0.037 μM
  Cell Concentration, MM cell line: 1.36 ± 0.07 ×10^6
[5]; dose 0.11 μM
  Cell Concentration, MM cell line: 1.30 ± 0.01 ×10^6
[5]; dose 0.33 μM
  Cell Concentration, MM cell line: 0.80 ± 0.01 ×10^6
[5]; dose 1 μM
  Cell Concentration, MM cell line: 0.17 ± 0.00 ×10^6
[5]; dose 3 μM
  Cell Concentration, MM cell line: 0.2 ± 0.05 ×10^6
[6]
  EC50: 410 nM
[7]
  IC50: < 500 nM
[8]; dose 0.004 μM
  Cell Concentration, MCL-Jeko: 1.98 ± 0.03 ×10^6
[8]; dose 0.037 μM
  Cell Concentration, MCL-Jeko: 1.99 ± 0.02 ×10^6
[8]; dose 0.11 μM
  Cell Concentration, MCL-Jeko: 1.96 ± 0.05 ×10^6
[8]; dose 0.33 μM
  Cell Concentration, MCL-Jeko: 1.77 ± 0.02 ×10^6
[8]; dose 1 μM
  Cell Concentration, MCL-Jeko: 1.46 ± 0.02 ×10^6
[8]; dose 3 μM
  Cell Concentration, MCL-Jeko: 0.34 ± 0.04 ×10^6
[9]
  EC50: 55 nM
[10]
  EC50: 1200 nM

## Cc1nc2ncccn2c1-c1csc(Nc2ccc(Cl)cc2)n1 [Cpd 49, N-(4-chlorophenyl)-4-(2-methylimidazo[1,2-a]pyrimidin-3-yl)-1,3-thiazol-2-amine]
[2]; Homo sapiens, MINO, dose 0.004 μM, read-out: Cell Viability, MCL-Mino
  viability at 0.004 µM: 94.7 ± 0.44%
[2]; Homo sapiens, MINO, dose 0.037 μM, read-out: Cell Viability, MCL-Mino
  viability at 0.037 µM: 91.2 ± 1%
[2]; Homo sapiens, MINO, dose 0.11 μM, read-out: Cell Viability, MCL-Mino
  viability at 0.11 µM: 75.6 ± 1.49%
[2]; Homo sapiens, MINO, dose 0.33 μM, read-out: Cell Viability, MCL-Mino
  viability at 0.33 µM: 34.4 ± 2.46%
[2]; Homo sapiens, MINO, dose 1 μM, read-out: Cell Viability, MCL-Mino
  viability at 1 µM: 15.3 ± 1.13%
[2]; Homo sapiens, MINO, dose 3 μM, read-out: Cell Viability, MCL-Mino
  viability at 3 µM: 12.7 ± 1.47%
[2]; dose 0.004 μM
  Cell Concentration, MCL-Mino: 1.87 ± 0.04 ×10^6
[2]; dose 0.037 μM
  Cell Concentration, MCL-Mino: 1.72 ± 0.09 ×10^6
[2]; dose 0.11 μM
  Cell Concentration, MCL-Mino: 0.97 ± 0.06 ×10^6
[2]; dose 0.33 μM
  Cell Concentration, MCL-Mino: 0.15 ± 0.06 ×10^6
[2]; dose 1 μM
  Cell Concentration, MCL-Mino: 0.07 ± 0.01 ×10^6
[2]; dose 3 μM
  Cell Concentration, MCL-Mino: 0.06 ± 0.01 ×10^6
[4]; Homo sapiens, Rec1, dose 0.004 μM, read-out: Cell Viability, MCL-Rec1
  viability at 0.004 µM: 89.2 ± 0.33%
[4]; Homo sapiens, Rec1, dose 0.037 μM, read-out: Cell Viability, MCL-Rec1
  viability at 0.037 µM: 89.07 ± 0.33%
[4]; Homo sapiens, Rec1, dose 0.11 μM, read-out: Cell Viability, MCL-Rec1
  viability at 0.11 µM: 90.07 ± 0.1%
[4]; Homo sapiens, Rec1, dose 0.33 μM, read-out: Cell Viability, MCL-Rec1
  viability at 0.33 µM: 81.93 ± 0.03%
[4]; Homo sapiens, Rec1, dose 1 μM, read-out: Cell Viability, MCL-Rec1
  viability at 1 µM: 51 ± 1.83%
[4]; Homo sapiens, Rec1, dose 3 μM, read-out: Cell Viability, MCL-Rec1
  viability at 3 µM: 12 ± 0.95%
[4]; dose 0.004 μM
  Cell Concentration, MCL-Rec1: 0.83 ± 0.01 ×10^6
[4]; dose 0.037 μM
  Cell Concentration, MCL-Rec1: 0.87 ± 0.01 ×10^6
[4]; dose 0.11 μM
  Cell Concentration, MCL-Rec1: 0.84 ± 0.01 ×10^6
[4]; dose 0.33 μM
  Cell Concentration, MCL-Rec1: 0.58 ± 0.00 ×10^6
[4]; dose 1 μM
  Cell Concentration, MCL-Rec1: 0.21 ± 0.01 ×10^6
[4]; dose 3 μM
  Cell Concentration, MCL-Rec1: 0.04 ± 0.00 ×10^6
[11]
  cytotoxicity at 0.08 µM: 70 to 90%
[5]; dose 0.004 μM
  Cell Concentration, MM cell line: 1.22 ± 0.05 ×10^6
  viability at 0.004 µM: 89.63 ± 0.35%
[5]; dose 0.037 μM
  Cell Concentration, MM cell line: 1.09 ± 0.05 ×10^6
  viability at 0.037 µM: 89.53 ± 0.46%
[5]; dose 0.11 μM
  Cell Concentration, MM cell line: 0.85 ± 0.05 ×10^6
  viability at 0.11 µM: 84.7 ± 0.88%
[5]; dose 0.33 μM
  Cell Concentration, MM cell line: 0.38 ± 0.01 ×10^6
  viability at 0.33 µM: 69.6 ± 0.85%
[5]; dose 1 μM
  Cell Concentration, MM cell line: 0.21 ± 0.01 ×10^6
  viability at 1 µM: 55.5 ± 2.4%
[5]; dose 3 μM
  Cell Concentration, MM cell line: 0.22 ± 0.01 ×10^6
  viability at 3 µM: 55.5 ± 1.79%
[7]
  IC50: < 500 nM
[8]; dose 0.004 μM
  Cell Concentration, MCL-Jeko: 1.83 ± 0.01 ×10^6
[8]; dose 0.004 μM, read-out: Cell Viability, MCL-Jeko
  viability at 0.004 µM: 74.33 ± 0.53%
[8]; dose 0.037 μM
  Cell Concentration, MCL-Jeko: 1.94 ± 0.06 ×10^6
[8]; dose 0.037 μM, read-out: Cell Viability, MCL-Jeko
  viability at 0.037 µM: 74.7 ± 1.08%
[8]; dose 0.11 μM
  Cell Concentration, MCL-Jeko: 2.06 ± 0.04 ×10^6
[8]; dose 0.11 μM, read-out: Cell Viability, MCL-Jeko
  viability at 0.11 µM: 78.73 ± 0.33%
[8]; dose 0.33 μM
  Cell Concentration, MCL-Jeko: 1.82 ± 0.06 ×10^6
[8]; dose 0.33 μM, read-out: Cell Viability, MCL-Jeko
  viability at 0.33 µM: 73.2 ± 0.58%
[8]; dose 1 μM
  Cell Concentration, MCL-Jeko: 0.66 ± 0.05 ×10^6
[8]; dose 1 μM, read-out: Cell Viability, MCL-Jeko
  viability at 1 µM: 39.6 ± 2.28%
[8]; dose 3 μM
  Cell Concentration, MCL-Jeko: 0.06 ± 0.01 ×10^6
[8]; dose 3 μM, read-out: Cell Viability, MCL-Jeko
  viability at 3 µM: 5.4 ± 0.61%
